Consider two molecules from patent US7192746B2, “α-Isomaltosyltransferase, process for producing the same and use thereof” (Kabushiki Kaisha Hayashibara Seibutsu Kagaku Kenkyujo, priority 2000, dated 2007).

Series [1] concerns α-isomaltosyl-transferring enzyme from Bacillus globisporus C11. Put plainly: Action on saccharides (substrates, TLC). Type of series: biochemical. The arrangement: key: −: there was found no substrate change before and after the enzymatic reaction; +: there were found both the reduction of substrate and the formation of cyclotetrasaccharide after the enzymatic reaction. Particulars: 2 units/g substrate, 2% (w/v) substrate, 30° C., pH 6.0, 24 hours. A digest of the protocol: (§1)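 Action was judged by comparing TLC profiles of each mixture before and after a 24-hour reaction at 30° C. and pH 6.0. Each saccharide (2% w/v) received 2 units/g substrate of purified enzyme; plates were developed in n-butanol, pyridine and water (6:4:1).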

The subject of series [2] is α-isomaltosyl-transferring enzyme from Bacillus globisporus N75. Put plainly: Action on saccharides (substrates, TLC). Type of series: biochemical. As to conditions: 2 units/g substrate, 2% (w/v) substrate, 30° C., pH 6.0, 24 hours. The arrangement: key: −: there was found no substrate change before and after the enzymatic reaction; +: there were found both the reduction of substrate and the formation of cyclotetrasaccharide after the enzymatic reaction. Put shortly:
as §1

The subject of series [3] is α-isomaltosyl-transferring enzyme from Bacillus globisporus C9. Put plainly: Action on saccharides (substrates, TLC). More on the design: key: −: there was found no substrate change before and after the enzymatic reaction; +: there were found both the reduction of substrate and the formation of cyclotetrasaccharide after the enzymatic reaction. As to conditions: 2 units/g substrate, 2% (w/v) substrate, 30° C., pH 6.0, 24 hours. Format: biochemical. Put shortly:
as §1

The subject of series [4] is α-isomaltosyl-transferring enzyme from Arthrobacter ramosus S1. The series can be described thus: Action on saccharides (substrates, TLC). Type of series: biochemical. The arrangement: key: −: there was found no substrate change before and after the enzymatic reaction; +: there were found both the reduction of substrate and the formation of cyclotetrasaccharide after the enzymatic reaction. Particulars: 2 units/g substrate, 2% (w/v) substrate, 30° C., pH 6.0, 24 hours. A digest of the protocol: as §1

Series [5] has as its system α-isomaltosyl-transferring enzyme from Arthrobacter globiformis A19. The series can be described thus: Action on saccharides (substrates, TLC). Format: biochemical. The arrangement: key: −: there was found no substrate change before and after the enzymatic reaction; +: there were found both the reduction of substrate and the formation of cyclotetrasaccharide after the enzymatic reaction. Particulars: partially purified enzyme, 2 units/g substrate, 2% (w/v) substrate, 30° C., pH 6.0, 24 hours. Put shortly:
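Purified enzyme (partially purified for A. globiformis A19) at 2 units/g substrate acted on each saccharide at 2% (w/v), pH 6.0, 30° C., 24 h. Pre- and post-reaction mixtures ran on silica gel TLC in n-butanol/pyridine/water (6:4:1). Total sugars were stained by sulfuric acid-methanol and reducing sugars by diphenylamine-aniline.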

Series [6] concerns Bifidobacterium adolescentis JCM 1275 strain. The series can be described thus: Assimilation test. Format: cell-based. Particulars: PYF medium with 0.5% saccharide, 37° C., four days, anaerobic.
Series [7] has as its system small intestinal mucosal enzyme.
The nature of series [8]: Saturation concentration of cyclotetrasaccharide in water. Type of series: physicochemical. Particulars: for Saturation concentration of cyclotetrasaccharide: water. From the text:
The resulting each saturated solution of cyclotetrasaccharide was membrane filtered to remove undissolved cyclotetrasaccharide, and each filtrate was then examined for moisture content by the drying loss method and determined for a saturation concentration of cyclotetrasaccharide at respective temperatures.

In series [9] the test system is Escherichia coli IFO 3301 strain. The series can be described thus: Assimilation test. Type of series: cell-based. Particulars: PYF medium with 0.5% saccharide, 37° C., four days, anaerobic.
Series [10] relates to Clostridium perfringens JCM 3816 strain. Format: cell-based. Particulars: PYF medium with 0.5% saccharide, 37° C., four days, anaerobic.
A further series concerns the target T1, amylopsin (Homo sapiens, UniProt P04746).
T1 sequence (P04746 16-511): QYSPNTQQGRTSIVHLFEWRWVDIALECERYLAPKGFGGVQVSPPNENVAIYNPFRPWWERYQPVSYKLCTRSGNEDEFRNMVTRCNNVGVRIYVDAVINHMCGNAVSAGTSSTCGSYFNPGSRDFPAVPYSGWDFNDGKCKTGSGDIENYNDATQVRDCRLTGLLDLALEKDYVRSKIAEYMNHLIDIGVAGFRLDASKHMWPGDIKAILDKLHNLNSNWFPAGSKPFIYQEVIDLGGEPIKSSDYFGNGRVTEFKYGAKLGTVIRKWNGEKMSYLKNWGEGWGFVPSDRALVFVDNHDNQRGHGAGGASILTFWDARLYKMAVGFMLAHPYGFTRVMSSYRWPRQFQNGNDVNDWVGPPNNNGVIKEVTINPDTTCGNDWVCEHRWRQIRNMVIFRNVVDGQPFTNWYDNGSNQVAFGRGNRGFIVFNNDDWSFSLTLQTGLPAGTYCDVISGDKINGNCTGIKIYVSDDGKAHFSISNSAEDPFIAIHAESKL

As for `OC[C@@H](O)[C@@H](O[C@H]1O[C@H](CO)[C@@H](O)[C@H](O)[C@H]1O)[C@H](O)[C@@H](O)CO` [Maltitol, maltitol], the “Enzymatic action for forming cyclotetrasaccharide, Enzyme of Strain C11” value in [1] was “−”. Moreover, the “Enzymatic action for forming cyclotetrasaccharide, Enzyme of Strain N75” value in series [2] is given as “−”. Further, the “Enzymatic action for forming cyclotetrasaccharide, Enzyme of Strain C9” value in series [3] is on record as “−”. In series [4], the “Enzymatic action for forming cyclotetrasaccharide, Enzyme of Strain S1” value is “−”. Also, the “Enzymatic action for forming cyclotetrasaccharide, Enzyme of Strain A19” value in [5] is recorded as “−”.
With `OCC1OC2OCC3O[C@H](O[C@H]4C(O)C(CO)OC(OCC5O[C@H](O[C@@H](C1O)C2O)C(O)C(O)[C@@H]5O)C4O)C(O)C(O)[C@@H]3O` (stereo partly drawn) [Cyclotetrasaccharide, cyclo{→6)-α-D-glucopyranosyl-(1→3)-α-D-glucopyranosyl-(1→6)-α-D-glucopyranosyl-(1→3)-α-D-glucopyranosyl-(1→}], the Assimilability result in series [6], in series [9] and in [10] was “− (negative (−) when the post culture had a pH of 6.0 or higher)” in each case. In addition, the results for the “Decomposition percentage by digestive enzyme” value (in [7]; on amylopsin) were 0.74% and 0.0%, respectively. The “Digestibility by intestinal mucosal enzyme relative to maltitol” value in series [7] was “⅕”. In addition, the “Weight of cyclotetrasaccharide dissolved in 100 g water” value in series [8] (10° C.) came to 43.5 g; in [8] (30° C.), 51.9 g; in [8] (50° C.), 74.2 g; in series [8] (70° C.) it was 112.7 g; in series [8] (90° C.), 239.0 g. For the same molecule, the “Saturation concentration of cyclotetrasaccharide” value is listed as 30.3% in series [8] (10° C.); 34.2% in [8] (30° C.); 42.6% in series [8] (50° C.); 53.0% in series [8] (70° C.); 70.5% in series [8] (90° C.).
